Measurements: US6255502A, “Pharmaceutical composition containing acid addition salt of basic drug” (Farmarc Nederland B.V., priority 1996, dated 2001)
Converted amounts (≈) assume the structure as drawn.

Experiments:
[1] = Deliquescence of precipitate on standing; format: physicochemical
[2] = Partition coefficient and apparent partition coefficient, n-octanol / phosphate buffer pH 7.4 at 25° C.; format: physicochemical; conditions: n-octanol / phosphate buffer pH 7.4, 25° C.; for Partition Coefficient: P = Co/Cw; for Apparent Partition Coefficient: Papp=P/(1+10^pKa-pH)
Experimental: Melting points (peak onset temperature) were determined by Differential Scanning Calorimetry using a Perkin Elmer DSC 7. The saturation solubilities were determined by shaking an excess of the compound in phosphate buffer pH 7.4 at 25° C. […] Pharmaceutical Press p70]:
where P=Co /Cw and where Co is the concentration of the drug in n-octanol and Cw is the concentration of the drug in phosphate buffer pH 7.4 at 25° C. Drug concentrations were determined by HPLC.

[3] = Aqueous solubility (stated in the Examples); format: physicochemical; conditions: aqueous solution
[4] = Thermal decomposition seen in differential scanning calorimetry; format: physicochemical; conditions: DSC from 50 to 200° C.
Experimental: Salbutamol base (1.2007 g; 5.02 mmol) was dissolved in ethanol (100 mL) with vigorous stirring. Glycodeoxycholic acid (2.4601 g; water content: 4.25% w/w; 5.25 mmol~5% molar excess) was added and dissolved with stirring. A clear, colourless solution was obtained. The ethanol was removed by vacuum rotary-evaporation to give a viscous, yellow residue. Ethyl acetate (200 mL) was added to the residue and the mixture heated in a water bath with constant agitation. As the yellow residue dissolved, a white precipitate formed. Agitation was continued until the yellow residue disappeared. The ethyl acetate solution was cooled in an ice bath. […] Analysis by differential scanning calorimetry from 50 to 200° C. gave no significant thermal event. Slow decomposition was evident after 110° C.

[5] = providing an appropriate pH gradient existed; cited from earlier work
[6] = dogs, sustained-release oral formulation study; cited from earlier work
[7] = by forming a complex with a fatty acid; cited from earlier work
[8] = cited from earlier work

Structure (SMILES): COc1ccc2c3c1O[C@H]1[C@@H](O)C=C[C@H]4[C@@H](C2)N(C)CC[C@@]341 [Codeine caprate, codeine caprate]
- Deliquescence [1]: very deliquescent

Structure (SMILES): CC(C)(C)NCC(O)c1ccc(O)c(CO)c1 (stereo not drawn) [Salbutamol base]
- Partition Coefficient [2]: 0,42
- Apparent Partition Coefficient [2]: 0.005222

Structure (SMILES): CC(C)(C)NCC(O)c1ccc(O)c(CO)c1 (stereo not drawn) [Salbutamol caprate]
- Partition Coefficient [2]: 0,54
- Apparent Partition Coefficient [2]: 0,006714
- solubility ([3]; water): 4760 µg/mL (≈ 19.9 mM)

Structure (SMILES): CC(C)(C)NCC(O)c1ccc(O)c(CO)c1 (stereo not drawn) [Salbutamol glycodeoxycholate, salbutamol glycodeoxycholate]
- Slow decomposition evident after [4]: > 110 °C
- Partition Coefficient [2]: 0,61
- Apparent Partition Coefficient [2]: 0,007584
- Aqueous solubility [3]: greater than 8.35 mg/mL

Structure (SMILES): CNS(=O)(=O)Cc1ccc2[nH]cc(CCN(C)C)c2c1 [Sumatriptan base]
- Partition Coefficient [2]: 0,69
- Apparent Partition Coefficient [2]: 0,004039

Structure (SMILES): CNS(=O)(=O)Cc1ccc2[nH]cc(CCN(C)C)c2c1 [Sumatriptan caprate, sumatriptan caprate]
- Partition Coefficient [2]: 1,54
- Apparent Partition Coefficient [2]: 0.009015

Structure (SMILES): CCCCCCCCCCCC(=O)O [lauric acid]
- Transport of cations across an iso-Pr myristate membrane [5]: facilitated

Structure (SMILES): CCCCCCCC/C=C\CCCCCCCC(=O)O [oleic acid]
- Transport of cations across an iso-Pr myristate membrane [5]: facilitated

Structure (SMILES): CC(C)NCC(O)COc1cccc2ccccc12 (stereo not drawn) [propranolol laurate]
- bioavailability [6]: An increase in bioavailability was observed

Structure (SMILES): CC(C)NCC(O)COc1cccc2ccccc12 (stereo not drawn) [propranolol]
- Penetration across the stratum corneum [7]: a significant proportion of propranolol will penetrate across the stratum corneum

Structure (SMILES): CCCCCCCCCC(=O)[O-].[Na+] [sodium caprate]
- effect on rat nasal absorption of insulin [8]: promoting effect

Structure (SMILES): CCCCCCCC(=O)[O-].[Na+] [sodium caprylate]
- effect on rat nasal absorption of insulin [8]: promoting effect

Structure (SMILES): CCCCCCCCCCCC(=O)[O-].[Na+] [sodium laurate]
- effect on rat nasal absorption of insulin [8]: promoting effect
